Laboratory results reported in paper PMC6005845 (Frontiers in Cardiovascular Medicine, 2018).
Where two headings read alike, the source gives them in different places.

Experiments:
[1] = tested on: MCP-1; experiment: Plasma MCP-1 ELISA; format: in vivo, APOE*3Leiden.CETP mice; details: for MCP-1: after 16 weeks of treatment; for change of MCP-1 relative to baseline (T = 0 weeks): p < 0.001
From the text: Pouwer et al Supplementary material […]
The inflammatory markers SAA, E-selectin and MCP-
according to the manufacturer’s instruction. […]

[2] = QD, cited from earlier work
[3] = tested on: APOE*3Leiden.CETP mice; experiment: Histological assessment of atherosclerosis (lesion area, number, severity) in the aortic root; format: in vivo; details: 16 weeks
Method: Significance of differences between the groups was calculated in SPSS 22.0 for Windows. Normally distributed data was tested parametrically using a one-way ANOVA for multiple comparisons with a Dunnett’s post-hoc test. Non-parametric data were compared separately with a Mann-Whitney U test with adjusted rejection criteria using a Bonferroni-Holm correction. Correlations between lesion size (after square root transformation) and cholesterol exposure were calculated with a Pearson’s correlation test. All groups were compared with the control group. Values are presented as means ± SD and p-values < 0.05 were considered statistically significant.
(§1) Pouwer et al Supplementary material
Dickinson, Franklin Lakes, New Jersey, USA). […]
(§2) Histological assessment of lung morphology and atherosclerosis […]
(§3) The caudal lung was cross […]
direction of the aortic arch. […]
valve leaflets and smooth muscle cells instead of collagen-rich tissue, serial cross sections (5 µm thick with intervals of 50 µm) were taken and mounted on AAS-coated slides. These sections were stained with hematoxylin-phloxine-saffron (HPS) for histological analysis. For each mouse, atherosclerosis was measured in 4 subsequent cross sections. Each section consisted of 3 segments. The average total lesion area per cross section was then calculated20
22. For determination of lesion severity the lesions were classified into five categories according to the American Heart Association classification 23: 0) no lesion I) early fatty streak, II) regular fatty streak, III) mild plaque, IV) moderate plaque, and V) severe plaque. The percentage of each lesion type was calculated, where type I-III lesions were classified as mild lesions and type IV-V lesions were classified as severe lesions 20 22. In the aortic root, lesion composition was determined for the severe lesions (type IV -V) as a percentage of lesion area after immunostaining with anti-human alpha-actin (1:400; PROGEN Biotechnik GmbH, Germany) for smooth muscle cells (SMC), and anti -mouse Mac-3 (1:50; BD Pharmingen, the Netherlands) for macrophages followed by Sirius Red staining. After Sirius Red staining for collagen, color intensity was determined in ImageJ and the used threshold was confirmed by evaluation of the sections under polarized light 24. Necrotic area and cholesterol clefts were measured after HPS staining13 20 22. Lesion stability index was calculated as described pre viously13 20. In each segment used for lesion quantification, the number of monocytes adhering to the endothelium were counted after immunostaining with AIA 31240 antibody (1:1000; Accurate Chemical and Scientific, New York, New York, USA) 14 20. […]

[4] = tested on: ALT; experiment: Plasma ALT (pooled samples); details: after 16 weeks
[5] = tested on: APOE*3Leiden.CETP mice; experiment: Plasma cholesterol, triglycerides and HDL-C in the atherosclerosis study; format: in vivo; details: for change of HDL-C vs control: at 16 weeks of treatment; for reduction of average plasma cholesterol compared to control: p < 0.001
Method: Pouwer et al Supplementary material plasma lipids and a minimal effect of treatment of 30%, resulting in 15 animals per group.
Animal experiments were approved by the Institutional Animal Care and Use Committee of The Netherlands Organization for Applied Research under registration number 3557. […]
Biochemical analyses and blood pressure
EDTA plasma samples were collected throughout the study. Plasma cholesterol and triglycerides were determined every 4 weeks using enzymatic kits (Roche/Hitachi) according […]
(§4) HDL-C was measured after precipitation as described previously20. The distribution of […]
(§5) protein liquid chromatography (FPLC)9. The inflammatory markers SAA, E-selectin and MCP- […]
(§6) according to the manufacturer’s instruction. Plasma ALT and AST were determined using a […]
group at 2 and 15 weeks18. […]

[6] = for Body weight / Food intake: after 16 weeks; for Food intake: per cage
From the text: Female APOE*3Leiden.CETP transgenic mice (9 to 14 weeks of age) from the SPF breeding stock at TNO-Metabolic Health Research (TNO-Leiden) were used in this study. Females were used because they are more responsive to dietary cholesterol and fat than males. APOE*3Leiden females have a higher VLDL production ([20]) than males resulting in higher plasma total cholesterol (TC) and triglyceride (TG) levels and more pronounced development of atherosclerosis ([21, 22]). […] Body weight, food intake and clinical signs of behavior were monitored regularly during the study. Animal experiments were approved by the Institutional Animal Care and Use Committee of The Netherlands Organization for Applied Research under registration number 3557.

[7] = tested on: APOE*3Leiden.CETP mice; experiment: Hepatic lipid content by HPTLC; format: in vivo; details: 16 weeks
Method: as §1, §4, §5, §6
(§7) group at 2 and 15 weeks18.
(§8) Straubenhardt, Germany).21
(§9) BAL and urinary albumin:creatinin […]
(§10) catheter to collect broncho-alveolar lavage (BAL) fluid. Protein and albumin content in BAL […]
(§11) the mouse albumin ELISA kit (ALPCO, Salem, USA). Urinary albumin and creatinin levels […]
(§12) kit (Exocell, Philadelphia, USA) according to manufacturer’s instruction.

[8] = tested on: factor VII; experiment: Total factor VII coagulant activity in plasma; format: in vivo, APOE*3Leiden.CETP mice
From the text: as §1
(§13) Dickinson, Franklin Lakes, New Jersey, USA). After 12 weeks of treatment, peripheral blood
(§14) CD11b+/Ly6Chigh monocytes. The following conjugated monoclonal antibodies, all from
(§15) Coagulation factor VII and VIIa
(§16) (Diagnostica Stago Inc. Parsippany, N J). For the determination of total clotting FVII an one
(§17) Histological assessment of lung morphology and atherosclerosis
(§18) The caudal lung was cross
(§19) direction of the aortic arch.

[9] = tested on: APOE*3Leiden.CETP mice; experiment: Lung vascular integrity: histology, wet/dry weight ratio, protein in BAL fluid; format: in vivo
Method: as §1, §4, §5, §6, §7, §8, §9, §10, §11, §12
Dickinson, Franklin Lakes, New Jersey, USA). After 12 weeks of treatment, peripheral blood […]
CD11b+/Ly6Chigh monocytes. The following conjugated monoclonal antibodies, all from […]
as §15
(Diagnostica Stago Inc. Parsippany, N J). For the determination of total clotting FVII an one […]
as §2, §3, §19

[10] = tested on: CML; details: cited from earlier work
[11] = tested on: factor VIIa; experiment: Factor VIIa activity in plasma; format: in vivo, APOE*3Leiden.CETP mice; details: 30 mg/kg QD, at 4 weeks, p < 0.001
From the text: as §1, §13, §14, §15, §16, §17, §18, §19

Cc1ccc(C(=O)Nc2ccc(CN3CCN(C)CC3)c(C(F)(F)F)c2)cc1C#Cc1cnc2cccnn12 [Ponatinib, ponatinib]
MCP-1 ([1]; 3 mg/kg QD): 78 ± 29 pg/mL | MCP-1 ([1]; 10 mg/kg QD): 92 ± 68 pg/mL | AUC0–24 ([2]; CML-patients, repeated dose, dose 15–60 (mg)): 1300 ng·h/mL | AUC0–24 ([2]; CML-patients, single, dose 60 (mg)): 700 ± 400 ng·h/mL | reduction of atherosclerotic lesion area per cross-section vs control ([3]; 3 mg/kg QD, p = 0.002): 52% | change of lesion severity, mild lesions (type I-III) ([3]; 10 mg/kg QD, p < 0.01 (Figure 4B)): +64% | reduction of atherosclerotic lesion area per cross-section vs control ([3]; 10 mg/kg QD, p = 0.006): 48% | ALT ([4]; 3 mg/kg): 44 U/L | ALT ([4]; 10 mg/kg): 31 U/L | change of HDL-C vs control ([5]; 3 mg/kg QD (low dose), p = 0.003): −30% | reduction of average plasma cholesterol compared to control ([5]; 3 mg/kg QD, 16 week study): 37% | change of HDL-C vs control ([5]; 10 mg/kg QD (high dose), p = 0.016): −25% | reduction of average plasma cholesterol compared to control ([5]; 10 mg/kg QD, 16 week study): 44% | mice that died during blood pressure measurements ([6]; 3 mg/kg QD, t = 15 weeks): Two | Body weight ([6]; 3 mg/kg): 22.5 ± 2.3 gram | Food intake ([6]; 3 mg/kg): 2.4 gram/mouse/day | Body weight ([6]; 10 mg/kg): 22.3 ± 2.8 gram | Food intake ([6]; 10 mg/kg): 2.3 gram/mouse/day | change of hepatic cholesterol ester content vs control ([7]; 3 mg/kg QD (low dose), p < 0.001): −49% | change of hepatic triglyceride content vs control ([7]; 3 mg/kg QD (low dose), p = 0.048): −32% | change of hepatic cholesterol ester content vs control ([7]; 10 mg/kg QD (high dose), p < 0.001): −61% | change of hepatic triglyceride content vs control ([7]; 10 mg/kg QD (high dose), p = 0.005): −43% | change of hepatic free cholesterol content vs control ([7]; 10 mg/kg QD, p = 0.007): −21% | change of total factor VII coagulant activity (FVII) in plasma vs control ([8]; 3 mg/kg QD, after 12 weeks, p = 0.07): +28% | change of total factor VII coagulant activity (FVII) in plasma vs control ([8]; 10 mg/kg QD, after 4 weeks, p < 0.001): +265% | decrease of the amount of protein in BAL fluid ([9]; 3 mg/kg QD, week 16, p = 0.029): 51% | decrease of the amount of protein in BAL fluid ([9]; 10 mg/kg QD, week 16, p = 0.041): 47%

Cc1ccc(NC(=O)c2ccc(CN3CCN(C)CC3)cc2)cc1Nc1nccc(-c2cccnc2)n1 [Imatinib, imatinib]
effect on plasma MCP-1 ([1]; 150 mg/kg BID, 16 weeks): None of the inflammatory markers were significantly altered | MCP-1 ([1]; 150 mg/kg BID): 54 ± 44 pg/mL | change of total lesion area that consisted of severe (type IV–V) lesions vs control ([3]; 150 mg/kg BID, p < 0.001): −56% | reduction of atherosclerotic lesion area per cross-section vs control ([3]; 150 mg/kg BID, p < 0.001): 78% | ALT ([4]; 150 mg/kg BID): 31 U/L | relapses in treated patients [10]: up to 17% | reduction of average plasma cholesterol compared to control ([5]; 150 mg/kg BID, 16 week study): 69% | reduction of average plasma triglyceride levels compared to control ([5]; 150 mg/kg BID, 16 week study, p = 0.019): 36% | change of hepatic cholesterol ester content vs control ([7]; 150 mg/kg BID, p = 0.001): −30%

Cc1cn(-c2cc(NC(=O)c3ccc(C)c(Nc4nccc(-c5cccnc5)n4)c3)cc(C(F)(F)F)c2)cn1 [Nilotinib, nilotinib]
change of MCP-1 relative to baseline (T = 0 weeks) ([1]; 10 mg/kg QD, 16 weeks): +220% | MCP-1 ([1]; 10 mg/kg QD): 144 ± 82 pg/mL | change of MCP-1 relative to baseline (T = 0 weeks) ([1]; 30 mg/kg QD, 16 weeks): +160% | MCP-1 ([1]; 30 mg/kg QD): 117 ± 60 pg/mL | AUC0–24 ([2]; CML-patients, repeated dose, dose 400–1,200 (mg)): 36000 ± 11800 ng·h/mL | AUC0–24 ([2]; healthy subjects, single, dose 400 (mg)): 14700 ± 5000 ng·h/mL | effect on atherosclerotic lesion area ([3]; 10 and 30 mg/kg QD): not affected | ALT ([4]; 10 mg/kg): 64 U/L | ALT ([4]; 30 mg/kg): 81 U/L | effect on plasma lipid levels ([5]; 10 and 30 mg/kg QD, 16 week study, vs control): no significant effect | increase of the activity of FVIIa in plasma vs control [11]: 82%
